# Measurements as given in patent US20190100731A1, “EX-VIVO […] MODEL, METHODS OF PRODUCING SAME AND USES THEREOF” (The State of Israel, Ministry of Agriculture & Rural …, priority 2016, published 2019).
# “Also recorded” adds a separate entry of the source.
# Columns and labels:
# [1] = test system: IL-8; test: IL-8 secretion (ELISA) in D/C-treated ex-vivo intestinal biopsies; assay type: cell-based, human; set-up: IL-8 secretion Value: unit not given here
# Protocol: (§1) Biopsies (3 mm3) obtained from inflamed or healthy intestines and placed in PBS were treated with a Dispase (1 U/ml, Cat # 07923, StemCell Technologies Inc.) and Collagenase Type 1 (0.5 mg/ml with an activity of 0.5-2 U/mg Cat # 07902, StemCell Technologies Inc.) solution. Tubes were then incubated for 2-3h at 37° C.
# After incubation, the tubes containing the biopsies were centrifuged at 5000 rpm for 1 minute. Then the supernatants were removed and tissues were washed three times with Hank's balance salt solution (HBSS). After each wash tubes were centrifuged as mentioned above. Then the tissues were placed on small Petri dish and cut into 2-3 pieces with a clean scalpel. Explants were cultured in groups of 2-3 with the villus surface facing up on microporous membranes (0.45-m pore size) contained in either Millicell-HA or organotypic tissue culture inserts (Millipore) placed inside 6-well plastic tissue culture dishes (Costar 3506) along with 1.5 ml of tissue culture medium. The tissue culture medium was Dulbecco's modified Eagle's medium supplemented with 10% heat-inactivated fetal calf serum, penicillin (100units/ml), streptomycin (100 μg/ml), leupeptin (50 μg/ml), PMSF (1 mM), soybean trypsin inhibitor (50 μg/ml). In cases dexamethasone (DX) was included in the media, its concentration was 200 μg/ml. This is followed by treating the samples with Control and extracts treatments (cannabis or other). In cases TNF-α is added to induce ILs expression the concentration was 50 μg/ml. Cultures are then incubated at 37° C. and gassed hourly with 95% oxygen and 5% carbon dioxide. For evaluation of TNF-α expression, supernatants are taken after 1 h of incubation. For other ILs, supernatants are taken after overnight incubation unless mentioned differently. The supernatants from biopsies are used for determination of cytokine profile by measuring their levels using commercial ELISA Kits. The following cytokines were measured: TNF Alfa (the supernatant was taken after 1-3 h), for the rest of the cytokines and interleukins supernatant was analyzed after 16 hours. The following factors were analyzed: IFN gamma, TFG beta, IL-10, IL-23/IL-23R, IL-12, IL-1 (IL 113), IL 2, IL-8/IL-8R, IL-6, IL-17, IL-13, IL-5, IL-4, IL-3. Levels of secreted factors from inflamed and healthy tissue and from cannabis treated and not treated tissue were compared. After all samples are taken, tissue viability will be assessed by addition of Alamar blue (Risazurin) as described below.
# Biopsies obtained from both healthy and sick intestinal samples of two patients were cultured overnight incubation using the full protocol (D/C) described in material and methods section hereinabove. Seven different cytokines were evaluated following overnight incubation using specific ELISA kits manufactured by R&D Systems.
# The cytokines tested included TNF-α, IL-6, IL-8, IL-10, IL-12, IL-17 and IL-27. In addition to the ethanolic cannabis extract was tested for its ability to reduce inflammation. After supernatant sampling, additional media was added to the wells and Resazurin (alamar blue) viability assay was carried out. […] Responsive cytokines that show significant levels of expression (FIGS. 1A-F) on one hand vs. other ILs in which basal level were obtained which didn't allow a clear conclusion (FIGS. 2A-D).
# Several more experiments were done to corroborate the above results. These are summarized in Table 1 below(C2F and F7 and dexamethasone).
# [2] = test system: IL-6; test: IL-6 production (ELISA) in ex-vivo intestinal biopsies; assay type: cell-based, human; conditions: D/C treated biopsies of patient P6; 18 hours; pure CBD 25 μM / 16.6 μM (FIG. 5)
# Protocol: as §1
# After incubation, the tubes containing the biopsies were centrifuged at 5000 rpm for 1 minute. Then the supernatants were removed and tissues were washed three times with Hank's balance salt solution (HBSS). After each wash tubes were centrifuged as mentioned above. Then the tissues were placed on small Petri dish and cut into 2-3 pieces with a clean scalpel. […] The following cytokines were measured: TNF Alfa (the supernatant was taken after 1-3 h), for the rest of the cytokines and interleukins supernatant was analyzed after 16 hours. The following factors were analyzed: IFN gamma, TFG beta, IL-10, IL-23/IL-23R, IL-12, IL-1 (IL 113), IL 2, IL-8/IL-8R, IL-6, IL-17, IL-13, IL-5, IL-4, IL-3. […] After all samples are taken, tissue viability will be assessed by addition of Alamar blue (Risazurin) as described below. […]
# [3] = biopsy PH-13-H: healthy patient 13, healthy tissue
# [4] = biopsy PH-15-H: healthy patient 15, healthy tissue
# [5] = biopsy PS-3-H: sick patient 3, healthy tissue
# [6] = biopsy PS-3-S: sick patient 3, sick tissue
# [7] = biopsy PS-4-H: sick patient 4, healthy tissue
# [8] = biopsy PS-4-S: sick patient 4, sick tissue
# [9] = biopsy PS-7-H: sick patient 7, healthy tissue
# [10] = biopsy PS-7-S: sick patient 7, sick tissue
# [11] = biopsy PS-8-H: sick patient 8, healthy tissue
# [12] = biopsy PS-11-H: sick patient 11, healthy tissue
# [13] = biopsy PS-11-S: sick patient 11, sick tissue
# [14] = biopsy PS-12-H: sick patient 12, healthy tissue
# [15] = biopsy PS-12-S: sick patient 12, sick tissue
# [16] = biopsy PS-14-H: sick patient 14, healthy tissue
# [17] = biopsy PS-14-S: sick patient 14, sick tissue
# [18] = biopsy PS-16-H: sick patient 16, healthy tissue
# [19] = biopsy PS-16-S: sick patient 16, sick tissue
# [20] = biopsy PS-17-H: sick patient 17, healthy tissue
# [21] = biopsy PS-17-S: sick patient 17, sick tissue
# [22] = biopsy PS-18-H: sick patient 18, healthy tissue
# [23] = biopsy PS-18-S: sick patient 18, sick tissue
# [24] = biopsy PS-19-H: sick patient 19, healthy tissue
# [25] = biopsy PS-19-S: sick patient 19, sick tissue
structure (smiles),measurement,setting,value
"C[C@@H]1C[C@H]2[C@@H]3CCC4=CC(=O)C=C[C@]4(C)[C@@]3(F)[C@@H](O)C[C@]2(C)[C@@]1(O)C(=O)CO [Dexamethasone, dexamethasone]",IL-8 secretion % Reduction from NT,[1]; [3],−1.1%
same,IL-8 secretion Value,[1]; [3],844.6
same,IL-8 secretion % Reduction from NT,[1]; [4],46.4%
same,IL-8 secretion Value,[1]; [4],451.9
same,IL-8 secretion % Reduction from NT,[1]; [5],32.4%
same,IL-8 secretion Value,[1]; [5],670.1
same,IL-8 secretion % Reduction from NT,[1]; [6],17.5%
same,IL-8 secretion Value,[1]; [6],742.6
same,IL-8 secretion % Reduction from NT,[1]; [7],4.3%
same,IL-8 secretion Value,[1]; [7],915.4
same,IL-8 secretion % Reduction from NT,[1]; [8],78.3%
same,IL-8 secretion Value,[1]; [8],216.9
same,IL-8 secretion % Reduction from NT,[1]; [9],14.7%
same,IL-8 secretion Value,[1]; [9],745.1
same,IL-8 secretion % Reduction from NT,[1]; [10],−5.6%
same,IL-8 secretion Value,[1]; [10],793.9
same,IL-8 secretion % Reduction from NT,[1]; [11],69.5%
same,IL-8 secretion Value,[1]; [11],215.3
same,IL-8 secretion % Reduction from NT,[1]; [12],94.8%
same,IL-8 secretion Value,[1]; [12],34.9
same,IL-8 secretion % Reduction from NT,[1]; [13],83.3%
same,IL-8 secretion Value,[1]; [13],74.2
same,IL-8 secretion % Reduction from NT,[1]; [14],43.7%
same,IL-8 secretion Value,[1]; [14],530.6
same,IL-8 secretion % Reduction from NT,[1]; [15],4.0%
same,IL-8 secretion Value,[1]; [15],817.8
same,IL-8 secretion % Reduction from NT,[1]; [16],44.2%
same,IL-8 secretion Value,[1]; [16],485.8
same,IL-8 secretion % Reduction from NT,[1]; [17],24.1%
same,IL-8 secretion Value,[1]; [17],666.8
same,IL-8 secretion % Reduction from NT,[1]; [18],38.3%
same,IL-8 secretion Value,[1]; [18],166.5
same,IL-8 secretion % Reduction from NT,[1]; [19],83.6%
same,IL-8 secretion Value,[1]; [19],96.7
same,IL-8 secretion % Reduction from NT,[1]; [20],68.9%
same,IL-8 secretion Value,[1]; [20],303.5
same,IL-8 secretion % Reduction from NT,[1]; [21],0.5%
same,IL-8 secretion Value,[1]; [21],1064.0
same,IL-8 secretion % Reduction from NT,[1]; [22],66.4%
same,IL-8 secretion Value,[1]; [22],331.0
same,IL-8 secretion % Reduction from NT,[1]; [23],36.1%
same,IL-8 secretion Value,[1]; [23],484.9
same,IL-8 secretion % Reduction from NT,[1]; [24],32.6%
same,IL-8 secretion Value,[1]; [24],86.0
same,IL-8 secretion % Reduction from NT,[1]; [25],64.2%
same,IL-8 secretion Value,[1]; [25],80.5
"C=C(C)[C@@H]1CCC(C)=C[C@H]1c1c(O)cc(CCCCC)cc1O [CBD, Cannabidiol]",anti-inflammatory activity (IL-6 production),[2],doesn't harbor any anti-inflammatory activity; also recorded: no anti-inflammatory activity
